Ten molecules from patent EP0719281B1, “MULTIPLE BRANCH PEPTIDE CONSTRUCTIONS FOR USE AGAINST HIV” (priority 1993, dated 1995) can be followed below.

One series concerns CEM or C8166 cells. As to conditions: concentrations of 10^-7 to 10^-4M; 15 days.
A further series concerns 8E5 cells. Description: Toxicity in the cell fusion test (MTT assay or trypan blue exclusion). As to conditions: Concentration (M) 5x10^-5. In general terms: Formazan colour is commonly taken as a measure of viable cells.
Series [1] relates to RT-deficient HIV-I(IIIB) isolate. Description: Inhibition of HIV-I induced cell fusion (8E5 cells co-cultivated with PHA stimulated human PBLs). Format: cell-based. The following applies: for Inhibition of HIV-I induced cell fusion (number of syncytia): after 24 hours. The text has this:
50 x 10^3 8E5 cells chronically infected with a RT-deficient HIV-I(IIIB) isolate, were co-cultivated with 150 x 10^3 phytohemagglutinin (PHA) stimulated human peripheral blood lymphocytes (PBLs) in the presence of the indicated peptide in 96-well plates. The MBPCs used are described by the peptides attached, and the number thereof, to a core lysine matrix, which is designated MLC. All amino acids used for this experiment were in dextro form.

The subject of another series is HIV-1(89.6). The series is described as follows: Infection of and syncytia formation in human primary macrophages. Format: cell-based. As to conditions: MBPC 5x10^-5M; 10,000 TCID50; 4 days post-infection. The text has this: Mononuclear cells were isolated from leukophoresis units enriched for monocytes by Ficoll-Hypaque density separation. Macrophages were purified by adherence to plastic in RPMI 1640 supplemented with 10% fetal calf serum and 5% human AB serum. […] After thorough washing, the cells were fed again with medium and analyzed for HIV-1 p24^gag production and syncytia formation 4 days post-infection.

“Also recorded” adds a separate entry of the source. Bridge positions count the residues as written; N and C are the ends. Square brackets hold non-standard residues; d marks the D form. Ends that are not written are not given here. I, II: the chains in the order shown. βAla = NCCC(=O)O

Description for CEM or C8166 cells: An MTT assay, a colorimetric cell viability assay using 3-[4,5-Dimethylthiazol-2-yl] 2,5-diphenyltetrazolium bromide, was used to assess the effect of MBPCs on cell viability. CEM or C8166 cells (5x10^4) were cultured continuously (15 days) in the presence of various concentrations of MBPCs in the wells of 96-well microtiter plates in 200 µl final volume of RPMI 1640 medium supplemented with 5% fetal calf serum, 1% glutamine, 1% streptomycin-penicillin (available from Gibco of Irvine, Scotland) in a humidified atmosphere with 5% CO2. Every 3 to 4 days, an MTT assay was performed on 100 µl of cells suspension and MBPC were added to cell culture and the volume completed to 200 µl.

Consider `C[C@H](NC(=O)[C@H](CCCNC(=N)N)NC(=O)CNC(=O)[C@@H]1CCCN1C(=O)CN)C(=O)N[C@@H](Cc1ccccc1)C(=O)NCCCC[C@H](NC(=O)[C@H](Cc1ccccc1)NC(=O)[C@H](C)NC(=O)[C@H](CCCNC(=N)N)NC(=O)CNC(=O)[C@@H]1CCCN1C(=O)CN)C(=O)NCCCC[C@H](NC(=O)[C@H](CCCCNC(=O)[C@H](Cc1ccccc1)NC(=O)[C@H](C)NC(=O)[C@H](CCCNC(=N)N)NC(=O)CNC(=O)[C@@H]1CCCN1C(=O)CN)NC(=O)[C@H](Cc1ccccc1)NC(=O)[C@H](C)NC(=O)[C@H](CCCNC(=N)N)NC(=O)CNC(=O)[C@@H]1CCCN1C(=O)CN)C(=O)NCCCC[C@H](NC(=O)[C@H](CCCCNC(=O)[C@H](CCCCNC(=O)[C@H](Cc1ccccc1)NC(=O)[C@H](C)NC(=O)[C@H](CCCNC(=N)N)NC(=O)CNC(=O)[C@@H]1CCCN1C(=O)CN)NC(=O)[C@H](Cc1ccccc1)NC(=O)[C@H](C)NC(=O)[C@H](CCCNC(=N)N)NC(=O)CNC(=O)[C@@H]1CCCN1C(=O)CN)NC(=O)[C@H](CCCCNC(=O)[C@H](Cc1ccccc1)NC(=O)[C@H](C)NC(=O)[C@H](CCCNC(=N)N)NC(=O)CNC(=O)[C@@H]1CCCN1C(=O)CN)NC(=O)[C@H](Cc1ccccc1)NC(=O)[C@H](C)NC(=O)[C@H](CCCNC(=N)N)NC(=O)CNC(=O)[C@@H]1CCCN1C(=O)CN)C(=O)NCCC(=O)O` [MBPC.3, (GPGRAF)8-(K)4-(K)2-K-βA-OH], for which the “toxicity to cells (MTT assay)” value in the series on CEM or C8166 cells was “not toxic”.
Regarding `C[C@H](NC(=O)[C@@H](CCCNC(=N)N)NC(=O)CNC(=O)[C@@H]1CCCN1C(=O)CN)C(=O)N[C@@H](Cc1ccccc1)C(=O)NCCCC[C@H](NC(=O)[C@H](Cc1ccccc1)NC(=O)[C@H](C)NC(=O)[C@@H](CCCNC(=N)N)NC(=O)CNC(=O)[C@@H]1CCCN1C(=O)CN)C(=O)NCCCC[C@H](NC(=O)[C@H](CCCCNC(=O)[C@H](Cc1ccccc1)NC(=O)[C@H](C)NC(=O)[C@@H](CCCNC(=N)N)NC(=O)CNC(=O)[C@@H]1CCCN1C(=O)CN)NC(=O)[C@H](Cc1ccccc1)NC(=O)[C@H](C)NC(=O)[C@@H](CCCNC(=N)N)NC(=O)CNC(=O)[C@@H]1CCCN1C(=O)CN)C(=O)NCCCC[C@H](NC(=O)[C@H](CCCCNC(=O)[C@H](CCCCNC(=O)[C@H](Cc1ccccc1)NC(=O)[C@H](C)NC(=O)[C@@H](CCCNC(=N)N)NC(=O)CNC(=O)[C@@H]1CCCN1C(=O)CN)NC(=O)[C@H](Cc1ccccc1)NC(=O)[C@H](C)NC(=O)[C@@H](CCCNC(=N)N)NC(=O)CNC(=O)[C@@H]1CCCN1C(=O)CN)NC(=O)[C@H](CCCCNC(=O)[C@H](Cc1ccccc1)NC(=O)[C@H](C)NC(=O)[C@@H](CCCNC(=N)N)NC(=O)CNC(=O)[C@@H]1CCCN1C(=O)CN)NC(=O)[C@H](Cc1ccccc1)NC(=O)[C@H](C)NC(=O)[C@@H](CCCNC(=N)N)NC(=O)CNC(=O)[C@@H]1CCCN1C(=O)CN)C(=O)NCCC(=O)O` [[GPG(R)DAF]8-MLC], the Toxicity entry in the series with 8E5 cells was “Toxic”.
As for “I: RKSIHIGPGRAFYTKK[βAla] / II: RKSIHIGPGRAFYTK / III: RKSIHIGPGRAFYT / IV: RKSIHIGPGRAFYT (amide I:15-IV:C, I:16-II:C, II:15-III:C) [MBPC.5]”, the Toxicity entry with 8E5 cells (listed as [RKSIHIGPGRAFYT]4-MLC) was “some toxicity; also recorded: Toxic”.
Turning to [Ac-GPGRAF]8-MLC, in series [1], the “syncytia formation / cell fusion (in words)” value is on record as “significant loss of activity”. Besides, the figures for the “Inhibition of HIV-I induced cell fusion (number of syncytia)” value (from here on “Inhibition of HIV-I induced cell fusion”) in series [1] (Concentration (M) 5x10^-5), in series [1] (Concentration (M) 5 x10^-6) and in series [1] (Concentration (M) 5x10^-7) were “- (- indicates the total absence of syncytia in the well)”, “+++” and “+++”, respectively.
With [GPGRAF]8-MLCD, in the series with HIV-1(89.6), the “infection of macrophages (in words)” value was “significantly less active than [GPGRAF]8-MLC”. Moreover, the “Inhibition of HIV-I induced cell fusion” value in series [1] (Concentration (M) 5x10^-5), in series [1] (Concentration (M) 5 x10^-6) and in series [1] (Concentration (M) 5x10^-7) was “+++” each time.
Take [GPGRA]8-MLC: the “syncytia formation / cell fusion (in words)” value in series [1] was “did not inhibit cell fusion”. In addition, the “Inhibition of HIV-I induced cell fusion” value in series [1] (Concentration (M) 5x10^-5), in series [1] (Concentration (M) 5 x10^-6) and in series [1] (Concentration (M) 5x10^-7) was “+++” each time.
On to [GPGR]8-MLC, for which, in series [1], the “syncytia formation / cell fusion (in words)” value is on record as “did not inhibit cell fusion”. Moreover, the “Inhibition of HIV-I induced cell fusion” value in series [1] (Concentration (M) 5x10^-5), in series [1] (Concentration (M) 5 x10^-6) and in series [1] (Concentration (M) 5x10^-7) was “+++” in each case.
[IGPGRAF]8-MLC: the “syncytia formation / cell fusion (in words)” value in series [1] is “significant loss of activity”. Also, the results for the “Inhibition of HIV-I induced cell fusion” value in series [1] (Concentration (M) 5x10^-5), in series [1] (Concentration (M) 5 x10^-6) and in series [1] (Concentration (M) 5x10^-7) were “- (- indicates the total absence of syncytia in the well)”, “±” and “+++”, respectively.
On to [RKSIHKGPGRAFYT]4-MLC, for which the “Inhibition of HIV-I induced cell fusion” value in series [1] (Concentration (M) 5 x10^-6) is reported as “- (- indicates the total absence of syncytia in the well)”; in series [1] (Concentration (M) 5x10^-7), “+++”. The Toxicity result with 8E5 cells is “Toxic”.
The corresponding values for [RKSIHTGPGRAFYT]4-MLC are “- (- indicates the total absence of syncytia in the well)”, “+++” and “Toxic”.
